This passage reports IC50 and IC90 results from ChEMBL document CHEMBL4483862, “Open-source discovery of chemical leads for next-generation chemoprotective antimalarials” (2018).

The experiment has as its system Plasmodium berghei. Kind of experiment: Luciferase/luciferin-expressing antifolate-resistant parasites were used to infect a culture of HepG2 cells that were pre-incubated with compounds. Infected hepatocytes emit light due to the luciferase reaction. Assay results are presented as the percent inhibition of light emission compared to control. […]. Format: functional. The conditions noted are these: sporozoite; for IC90: read-out: LUCIFERASE INFECTION ASSAY - IC90.

The mark [1] stands for this setting: read-out: LUCIFERASE INFECTION ASSAY - IC50.

On to `COC(=O)c1occc1/C=C/C(=O)C12CC3CC(CC(C3)C1)C2`, for which the concentration for an effect of 90% (IC90) is 7.04 µM. For the same compound, the IC50 (HEPG2TOX_HILL_SLOPE 9.64, HEPG2TOX_R_SQUARED 0.941, PBLUC_HILL_SLOPE 4.67, PBLUC_R_SQUARED 0.564, read-out: LUCIFERASE INFECTION ASSAY - IC50) was 4.4 µM.

In the case of `Cc1nc2sccn2c1C(=O)c1ccc(NS(=O)(=O)c2cc(C(=O)O)n(C)c2)cc1`, the 90% effect concentration (IC90) is above 10 µM. Further, the concentration for half-maximal inhibition (IC50) under setting [1] is above 10 µM.

As to `O=S(=O)(Nc1cccc2cccnc12)c1cc(Cl)c(Cl)cc1Cl`, the IC90 is above 8.51 µM. Besides, where the note is “PBLUC_HILL_SLOPE 9.06, PBLUC_R_SQUARED 0.472, read-out: LUCIFERASE INFECTION ASSAY - IC50”, the IC50 is above 8.51 µM.

`N=c1c2ccccc2nnn1-c1ccc(C(F)(F)F)cc1`: the concentration for an effect of 90% (IC90) was determined as 7.24 µM. In addition, where the note is “PBLUC_HILL_SLOPE 2.81, PBLUC_R_SQUARED 0.81, read-out: LUCIFERASE INFECTION ASSAY - IC50”, the concentration for half-maximal inhibition (IC50) was found to be 3.32 µM.

For the compound `O=C(Nc1cccc(C(F)(F)F)c1)Nc1ccccc1Sc1c(Cl)cncc1Cl`, the concentration for an effect of 90% (IC90) is above 7.2 µM. Further, for the setting “HEPG2TOX_HILL_SLOPE 7.44, HEPG2TOX_R_SQUARED 0.649, PBLUC_HILL_SLOPE 2.82, PBLUC_R_SQUARED 0.349, read-out: LUCIFERASE INFECTION ASSAY - IC50”, the half-inhibitory concentration (IC50) is 4.94 µM.

As to `O=C(O/N=C(\Nc1ccc(OC(F)(F)F)cc1)c1c(Cl)cccc1Cl)c1ccccc1C(F)(F)F`, the IC90 is above 6.14 µM. The IC50 (PBLUC_HILL_SLOPE 1.69, PBLUC_R_SQUARED 0.564, read-out: LUCIFERASE INFECTION ASSAY - IC50) was above 6.14 µM.

In the case of `Cn1c(SCC(=O)NC2CCCc3ccccc32)nnc1-c1cccnc1` (configuration not stated), the IC90 was above 10 µM. In addition, the IC50 (PBLUC_HILL_SLOPE 11.1, PBLUC_R_SQUARED 0.239, read-out: LUCIFERASE INFECTION ASSAY - IC50) was 8.8 µM.

For the compound `CCOc1ccc(Oc2ccc(S(=O)(=O)NC(C)c3ccncc3)cc2)cc1` (configuration not stated), the 90% effect concentration (IC90) was determined as 4.85 µM. Besides, the IC50 under setting [1] is 0.559 µM.

On to `N#Cc1ccccc1S(=O)(=O)Nc1cccc(-n2cccn2)c1`, for which the 90% effect concentration (IC90) was above 10 µM. Further, the IC50 under setting [1] was above 10 µM.

`O=S(=O)(/N=C(\N/N=C/c1ccc(Cl)cc1)N1CCCC1)c1ccc(-n2nc(C(F)(F)F)cc2-c2cccs2)cc1`: the concentration for an effect of 90% (IC90) was above 5.44 µM. The IC50 (FFLUC_HILL_SLOPE 13, FFLUC_R_SQUARED 0.6, read-out: LUCIFERASE INFECTION ASSAY - IC50) is above 5.44 µM.

On to `CC(C)(C)c1ccc(-c2ccc(OCCCc3ccccn3)nc2)cc1`, for which the IC90 is above 9.52 µM. The IC50 (HEPG2TOX_HILL_SLOPE 3.23, HEPG2TOX_R_SQUARED 0.98, PBLUC_HILL_SLOPE 2.82, PBLUC_R_SQUARED 0.72, read-out: LUCIFERASE INFECTION ASSAY - IC50) was 6.22 µM.

For `Cc1cc2[nH]c(C)cc(=O)n2n1`, the 90% effect concentration (IC90) is above 20.2 µM. Moreover, for the setting “FFLUC_HILL_SLOPE 10.3, FFLUC_R_SQUARED 0.148, read-out: LUCIFERASE INFECTION ASSAY - IC50”, the IC50 was above 20.2 µM.

Consider `Cn1cc(-c2cn3c(-c4ccc(O)cc4)cnc3cn2)cn1`, for which the 90% effect concentration (IC90) is above 11.3 µM. Also, where the note is “HEPG2TOX_HILL_SLOPE 9.44, HEPG2TOX_R_SQUARED 0.67, PBLUC_HILL_SLOPE 2.21, PBLUC_R_SQUARED 0.503, read-out: LUCIFERASE INFECTION ASSAY - IC50”, the IC50 was determined as 6.85 µM.

With `c1csc(-c2cnc3ccc(-c4cccc5ncccc45)nn23)c1`, the IC90 came out at 5.26 µM. The IC50 (HEPG2TOX_HILL_SLOPE 3.19, HEPG2TOX_R_SQUARED 0.792, PBLUC_HILL_SLOPE 2.95, PBLUC_R_SQUARED 0.78, read-out: LUCIFERASE INFECTION ASSAY - IC50) was found to be 2.49 µM.

Regarding `COc1ccc(/C=c2\s/c(=C\C(=O)C(C)(C)C)[nH]c2=O)cc1OCc1cccnc1`, the concentration for an effect of 90% (IC90) was above 10 µM. Further, under setting [1], the IC50 is above 10 µM.

For the compound `O=C1C(Cl)=C(OC(CO)CO)C(=O)c2ccccc21`, the 90% effect concentration (IC90) was determined as 1.49 µM. In addition, the half-inhibitory concentration (IC50) (HEPG2TOX_HILL_SLOPE 4.19, HEPG2TOX_R_SQUARED 0.978, PBLUC_HILL_SLOPE 3.44, PBLUC_R_SQUARED 0.808, read-out: LUCIFERASE INFECTION ASSAY - IC50) worked out at 0.784 µM.

Consider `CCn1c2ccccc2c2nnc(SCC(=O)c3cc(C)n(C)c3C)nc21`, for which the concentration for an effect of 90% (IC90) was above 10 µM. Besides, the half-maximal inhibitory concentration (IC50) (HEPG2TOX_HILL_SLOPE 1.47, HEPG2TOX_R_SQUARED 0.958, read-out: LUCIFERASE INFECTION ASSAY - IC50) is above 10 µM.

`COc1cc(Nc2ncc3c(n2)CCN(C(=O)Nc2ccc(C(C)C)cc2)C3)cc(OC)c1OC`: the 90% effect concentration (IC90) was 6.4 µM. The IC50 (HEPG2TOX_HILL_SLOPE 2.3, HEPG2TOX_R_SQUARED 0.688, PBLUC_HILL_SLOPE 0.8, PBLUC_R_SQUARED 0.723, read-out: LUCIFERASE INFECTION ASSAY - IC50) came to 0.411 µM.

`CNc1nnc(Sc2ncnc3ccsc23)s1`: the IC90 turned out to be 9.41 µM. The IC50 (PBLUC_HILL_SLOPE 11, PBLUC_R_SQUARED 0.35, read-out: LUCIFERASE INFECTION ASSAY - IC50) was 7.71 µM.

Consider `CC(C)N1C(=O)N(CCc2ccccc2)C2(CCN(C3Cc4ccccc4C3)CC2)C1=O`, for which the 90% effect concentration (IC90) was above 7.65 µM. Moreover, the IC50 under setting [1] is 6.55 µM.

`CC(=O)N1CCc2cc(NC(=O)C3CCN(c4ccc(C#N)cn4)CC3)ccc21`: the IC90 was above 10 µM. In addition, for the setting “PBLUC_HILL_SLOPE 2.56, PBLUC_R_SQUARED 0.25, read-out: LUCIFERASE INFECTION ASSAY - IC50”, the IC50 was above 10 µM.

In the case of `COc1cccc(Nc2nccc3nc(-c4cccc(C(F)(F)F)c4)[nH]c23)c1`, the IC90 was above 10 µM. Besides, the IC50 (PBLUC_HILL_SLOPE 2.33, PBLUC_R_SQUARED 0.497, read-out: LUCIFERASE INFECTION ASSAY - IC50) came to 4.16 µM.

Consider `Cc1ccc(Cl)cc1N1C(=O)C=CC1=O`, for which the concentration for an effect of 90% (IC90) is above 14.9 µM. Besides, where the note is “FFLUC_HILL_SLOPE 1.79, FFLUC_R_SQUARED 0.452, HEPG2TOX_HILL_SLOPE 16.8, HEPG2TOX_R_SQUARED 0.904, PBLUC_HILL_SLOPE 2.51, PBLUC_R_SQUARED 0.543, read-out: LUCIFERASE INFECTION ASSAY - IC50”, the concentration for half-maximal inhibition (IC50) turned out to be 6.7 µM.

Take `N#C/C(=C\c1cccc([N+](=O)[O-])c1)c1nn(-c2ccccc2)c(-n2cccc2)c1C#N`: the concentration for an effect of 90% (IC90) was above 8.12 µM. Besides, under “PBLUC_HILL_SLOPE 2.16, PBLUC_R_SQUARED 0.645, read-out: LUCIFERASE INFECTION ASSAY - IC50”, the half-inhibitory concentration (IC50) worked out at 5.63 µM.

Take `CC(=O)O/N=C1/CCn2c1c(C)c1ccccc12`: the 90% effect concentration (IC90) worked out at 5.74 µM. Moreover, the IC50 (HEPG2TOX_HILL_SLOPE 1.28, HEPG2TOX_R_SQUARED 0.99, PBLUC_HILL_SLOPE 11.8, PBLUC_R_SQUARED 0.596, read-out: LUCIFERASE INFECTION ASSAY - IC50) worked out at 4.77 µM.

In the case of `Cc1cc(C2(c3cc(C)n(-c4ccccc4)c3C)CCC(C)CC2)c(C)n1-c1ccccc1`, the IC90 is above 10 µM. Moreover, the half-maximal inhibitory concentration (IC50) (FFLUC_HILL_SLOPE 2.77, FFLUC_R_SQUARED 0.531, read-out: LUCIFERASE INFECTION ASSAY - IC50) was above 10 µM.

Take `N=C(Nc1cc(Cl)cc(Cl)c1)Nc1ncc(C(=O)c2ccccc2O)cn1`: the IC90 was above 10 µM. Also, under “PBLUC_HILL_SLOPE 2.46, PBLUC_R_SQUARED 0.348, read-out: LUCIFERASE INFECTION ASSAY - IC50”, the IC50 was 5.29 µM.

For `Cn1c(NCc2ccccc2)nc2cnc(-c3ccsc3)cc21`, the IC90 was above 10 µM. For the same compound, the half-maximal inhibitory concentration (IC50) under setting [1] is above 10 µM.

In the case of `CC(C)NC(=O)c1c(NC(=O)c2cccc(C#N)c2)nc2ccccn12`, the IC90 was determined as 7.68 µM. Moreover, the IC50 (HEPG2TOX_HILL_SLOPE 1.47, HEPG2TOX_R_SQUARED 0.952, PBLUC_HILL_SLOPE 19.2, PBLUC_R_SQUARED 0.401, read-out: LUCIFERASE INFECTION ASSAY - IC50) worked out at 6.85 µM.

On to `N#Cc1ccc(Cc2cnc(NC(=O)c3ccc4ncsc4c3)s2)cc1`, for which the IC90 came to 1.82 µM. In addition, the IC50 (HEPG2TOX_HILL_SLOPE 1.13, HEPG2TOX_R_SQUARED 0.797, PBLUC_HILL_SLOPE 1.77, PBLUC_R_SQUARED 0.567, read-out: LUCIFERASE INFECTION ASSAY - IC50) worked out at 0.526 µM.

Turning to `CCNC(=O)C1CCCN(C(=O)c2c(-c3ccccc3)noc2C)CC1` (configuration not stated), the IC90 is above 9.28 µM. Under setting [1], the half-inhibitory concentration (IC50) is above 9.28 µM.

In the case of `Cc1nc(C(F)(F)F)nc(NCc2ccc(Cl)cc2)c1C`, the concentration for an effect of 90% (IC90) was above 10.5 µM. Where the note is “PBLUC_HILL_SLOPE 1.61, PBLUC_R_SQUARED 0.626, read-out: LUCIFERASE INFECTION ASSAY - IC50”, the IC50 stood at 3.42 µM.

For `CCOC(=O)c1c(C)noc1/C(C)=N/OC(=O)Nc1cccc(C(F)(F)F)c1`, the IC90 is 3.98 µM. Besides, the IC50 (FFLUC_HILL_SLOPE 1.36, FFLUC_R_SQUARED 0.14, PBLUC_HILL_SLOPE 8.59, PBLUC_R_SQUARED 0.59, read-out: LUCIFERASE INFECTION ASSAY - IC50) was 3.08 µM.

With `Cc1ccccc1-c1cn2c(-c3ccc4c(c3)OCO4)cnc2cn1`, the concentration for an effect of 90% (IC90) is 0.821 µM. Also, the IC50 (HEPG2TOX_HILL_SLOPE 0.84, HEPG2TOX_R_SQUARED 0.902, PBLUC_HILL_SLOPE 1.93, PBLUC_R_SQUARED 0.734, read-out: LUCIFERASE INFECTION ASSAY - IC50) was found to be 0.263 µM.

As for `CSc1nn(-c2ccc(C(=O)OCc3c(C)cc(C(C)(C)C)cc3C)cc2)c(=S)s1`, the IC90 is above 10 µM. Moreover, the IC50 under setting [1] is above 10 µM.

For the compound `CCCn1c(-c2cccs2)nc2c(c(=O)c3ccccc3n2C)c1=O`, the IC90 worked out at 3.69 µM. The 50% inhibitory concentration (IC50) (PBLUC_HILL_SLOPE 10.5, PBLUC_R_SQUARED 0.782, read-out: LUCIFERASE INFECTION ASSAY - IC50) was 3 µM.

Broadly, the IC50 is the concentration at which inhibition is half-maximal. The term IC90 denotes the concentration at which the effect reaches the 90% level.
